Experimental data from patent US10391113B2, “Compatible composition containing chinese medicine cichorium glandulosum boiss et hout as lipid-lowering active ingredient” (Nanjing Ruiying Runze Biopharmaceutical Technology Co., Inc., priority 2014, dated 2019).

Key:
[1] = system: high fat diet induced rat lipid metabolism disorder model; assay: High fat diet induced rat lipid metabolism disorder model; format: in vivo, SD rat; conditions: 0.1 g/kg by gavage once a day, high fat feedstuff, after the eighth week
Method: Experiment method: 90 SD rats are normally fed for 1 week, the normal group of 10 rats are fed common feedstuff, and others are fed high fat feedstuff (basic feedstuff 88%, lard 10% and cholesterol 2%). 4 weeks later, the rats fed high fat feedstuff are randomly divided into 5 groups, each group of 10. […] The rats in the bezafibrate group are fed bezafibrate 100 mg/kg at the same time as the high fat feedstuff feeding respectively. The tested sample groups are given 100 mg/kg by gavage respectively at the same time as the high fat feedstuff feeding, once a day. The experiment animals can freely drink water and take food, and are fed separately in cages in light and dark for 12 hours, respectively, in a SPF grade animal lab under 25±2° C. After the eighth week of the experiment, the rats are fasted for 16 hours, collected blood from arteria cruralis, sacrificed by dislocating the cervical vertebra, taking out the liver, and preparing serum and liver tissue homogenate in conventional method. The triglyceride (TG), total cholesterol (TC), high density lipoprotein (HDL-C), low density lipoprotein (LDL-C), glutamic-pyruvic transaminase (ALT) and glutamic-oxalacetic transaminase (AST) content in the serum and liver is detected.

HepG2 cell = assay: Lipid droplet content of free fat acid (FFA) induced HepG2 cell (nile red, flow detection); format: cell-based; conditions: 24 hours, geometric median of fluorescence intensity, means ± s.d., n = 3, model group 222.64 ± 8.34
Method: Experiment method: the HepG2 cells in the logarithmic growth phase are taken having a growth density of 80%, and inoculated into 6-well plate at 1×10^5 per well. After culturing cells for 24 hours, the supernatant is discarded, and the cells are washed with PBS three times. […] Except for the blank control group, all of the other groups are added FFA having a final concentration of 1 mmol/L, and the remaining volume is completed to 2 mL with the DMEM medium containing 10% fetal bovine serum, 24 hours after administration, washed with PBS in 37° C. three times, digested by the pancreatin, centrifugated, the supernatant is discarded, the cells are resuspended with PBS, and the final concentration is adjusted to 1 μg/mL by adding nile red dye.

rat primary hepatocyte = assay: Influence on the lipid droplet content of the rat primary hepatocyte (FFA hyperlipidemia model, nile red, flow detection); format: cell-based, SD rat; conditions: administration dose 20 μM total molar concentration; 1 mmol/L FFA; 24 hours; means ± s.d., n = 3; versus model group
Method: The hepatocyte is taken out from the SD rat liver by using Seglen two steps in situ circulatory perfusion method, filtered through 100-mesh sieve, centrifugated for 3 min at 500 rpm and 4° C., and the supernatant is discarded, and the hepatocyte is washed three times in the same way. The number of living cells and the cell survival rate is obtained by counting the cell, and the cells are added in the plate at 1.0*10^6 cell/mL medium. The cells are cultured for 24 hours, then the supernatant is discarded, and the cells are washed with PBS three times. […] Other groups are adjusted to a final volume of 2 mL with Williams'E medium without serum, and 24 hours after administration, washed with PBS in 37° C. three times, digested by the pancreatin, centrifugated, the supernatant is discarded, the cells are resuspended with PBS, and the final concentration is adjusted to 1 μg/mL by adding nile red dye. […] Using D-Optimal experimental design method in the mixture experimental design, calculation is carried out by using response surface analysis method and using Design expert8.05b software. Choosing D-optimal in the Mixture option, analysis is carried out by entering compatible ratio of the compatible groups and the test results in Table 2.

[2] = administration dose 20 μM, 1 mM FFA

Q: Which “Weight” value [1] does the source give for `CC(C)(Oc1ccc(CCNC(=O)c2ccc(Cl)cc2)cc1)C(=O)O` [bezafibrate] here?
A: 433.15 ± 24.53 g

Q: What about the “ALT (U/L)” value ([1]; listed under liver) of the same compound?
A: 107.9 ± 14.12 U/L

Q: And the “AST (U/L)” value ([1]; listed under liver)?
A: 217.8 ± 33.93 U/L

Q: What about the “liver TC (mg/g liver)” value ([1]; liver) of the same compound?
A: 33 ± 12.23 mg/g liver

Q: And the “liver TG (mg/g liver)” value ([1]; liver)?
A: 186 ± 37.92 mg/g liver

Q: What about the “serum HDL-C” value ([1]; serum) of the same compound?
A: 1.58 ± 0.29 mmol/L

Q: What about the “serum LDL-C” value ([1]; serum) of the same compound?
A: 0.54 ± 0.30 mmol/L

Q: What about the “serum TC” value ([1]; serum) of the same compound?
A: 1.58 ± 0.17 mmol/L

Q: And the “serum TG” value ([1]; serum)?
A: 0.88 ± 0.19 mmol/L

Q: And the lipid droplet content (HepG2 cell; administration dose 100 μM)?
A: 178.84 ± 2.84

Q: Which results are given for `O=c1c(O[C@@H]2O[C@H](CO)[C@@H](O)[C@H](O)[C@H]2O)c(-c2ccc(O)c(O)c2)oc2cc(O)cc(O)c12` [isoquercitrin]?
A: decrease of the lipid droplet content (%) (rat primary hepatocyte): 7.52 ± 1.63%; lipid droplet content (HepG2 cell; [2]): 200.61 ± 8.43

Q: How did the “decrease of the lipid droplet content (%)” value (rat primary hepatocyte) turn out when `O=C(O)[C@H]1O[C@@H](Oc2c(-c3ccc(O)c(O)c3)oc3cc(O)cc(O)c3c2=O)[C@H](O)[C@@H](O)[C@@H]1O` [quercetin-3-O-β-D-glucuronide] was run?
A: 8.07 ± 0.92%

Q: And the lipid droplet content (HepG2 cell; [2])?
A: 153.38 ± 2.88

Q: What does the source list for `O=c1c(O)c(-c2ccc(O)c(O)c2)oc2cc(O)cc(O)c12` [quercetin]?
A: decrease of the lipid droplet content (%) (rat primary hepatocyte): 7.01 ± 1.03%; lipid droplet content (HepG2 cell; [2]): 198.25 ± 6.04
